Results reported in PMC4433244, “Interaction of cCMP with the cGK, cAK and MAPK Kinases in Murine Tissues” (PLoS ONE, 2015).

Legend:
cAKRIα = target: T1, cAKRIα (Mus musculus, UniProt Q9DBC7); experiment: 4-AH-cCMP agarose affinity chromatography competed by free cCMP; mass spectrometry and immunoblot (cAKRIα/β antibody); type: cell-based
T1 construct: gene Prkar1a; endogenous regulatory subunit in lung tissue lysate

cGKII = target: T2, cGKII (Mus musculus, UniProt Q61410); experiment: (γ-32P) ATP kinase assay with IRAGtide, activation of purified enzyme; type: biochemical
T2 construct: gene Prkg2; recombinant murine cGKII expressed in SF9 cells
T2 sequence (Q61410 2-762): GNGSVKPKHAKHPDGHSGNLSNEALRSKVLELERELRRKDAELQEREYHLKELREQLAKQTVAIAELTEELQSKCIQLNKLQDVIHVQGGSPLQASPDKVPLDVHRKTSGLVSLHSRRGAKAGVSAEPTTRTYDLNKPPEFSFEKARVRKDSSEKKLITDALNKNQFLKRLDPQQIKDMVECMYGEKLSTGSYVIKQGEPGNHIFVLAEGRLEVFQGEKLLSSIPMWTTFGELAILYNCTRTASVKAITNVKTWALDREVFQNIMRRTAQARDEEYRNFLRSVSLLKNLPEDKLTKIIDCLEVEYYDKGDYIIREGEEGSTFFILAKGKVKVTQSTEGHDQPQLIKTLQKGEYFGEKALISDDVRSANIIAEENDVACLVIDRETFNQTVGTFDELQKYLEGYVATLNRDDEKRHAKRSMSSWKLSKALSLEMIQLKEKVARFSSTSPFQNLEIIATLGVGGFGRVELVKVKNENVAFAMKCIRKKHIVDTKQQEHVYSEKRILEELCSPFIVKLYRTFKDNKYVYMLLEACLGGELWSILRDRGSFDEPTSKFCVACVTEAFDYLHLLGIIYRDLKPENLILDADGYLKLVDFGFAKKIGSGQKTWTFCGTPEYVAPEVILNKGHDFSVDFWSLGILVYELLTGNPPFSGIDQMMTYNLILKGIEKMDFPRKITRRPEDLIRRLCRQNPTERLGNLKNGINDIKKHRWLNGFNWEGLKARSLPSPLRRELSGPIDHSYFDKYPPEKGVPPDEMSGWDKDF

cGKI = target: T3, cGKI (Mus musculus, UniProt P0C605)
T3 construct: gene Prkg1
T3 sequence (P0C605 2-671): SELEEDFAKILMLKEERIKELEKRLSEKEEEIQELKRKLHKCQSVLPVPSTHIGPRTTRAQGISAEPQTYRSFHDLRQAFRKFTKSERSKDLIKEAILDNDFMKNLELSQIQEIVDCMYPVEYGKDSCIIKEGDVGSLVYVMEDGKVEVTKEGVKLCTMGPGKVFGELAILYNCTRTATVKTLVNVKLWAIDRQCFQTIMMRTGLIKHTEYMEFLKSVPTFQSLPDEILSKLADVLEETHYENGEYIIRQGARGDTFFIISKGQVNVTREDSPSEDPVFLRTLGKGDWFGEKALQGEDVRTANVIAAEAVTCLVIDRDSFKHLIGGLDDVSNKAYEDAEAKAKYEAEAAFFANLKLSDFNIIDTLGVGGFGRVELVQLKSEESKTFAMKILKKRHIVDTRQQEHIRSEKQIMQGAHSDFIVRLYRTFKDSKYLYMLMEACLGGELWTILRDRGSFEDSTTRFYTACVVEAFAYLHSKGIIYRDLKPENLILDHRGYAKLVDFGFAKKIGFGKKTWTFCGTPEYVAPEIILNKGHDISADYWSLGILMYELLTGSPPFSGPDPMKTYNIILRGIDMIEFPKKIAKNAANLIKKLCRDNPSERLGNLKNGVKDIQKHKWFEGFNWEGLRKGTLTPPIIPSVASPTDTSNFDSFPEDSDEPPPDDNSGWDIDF

T1 sequence (Q9DBC7 2-381): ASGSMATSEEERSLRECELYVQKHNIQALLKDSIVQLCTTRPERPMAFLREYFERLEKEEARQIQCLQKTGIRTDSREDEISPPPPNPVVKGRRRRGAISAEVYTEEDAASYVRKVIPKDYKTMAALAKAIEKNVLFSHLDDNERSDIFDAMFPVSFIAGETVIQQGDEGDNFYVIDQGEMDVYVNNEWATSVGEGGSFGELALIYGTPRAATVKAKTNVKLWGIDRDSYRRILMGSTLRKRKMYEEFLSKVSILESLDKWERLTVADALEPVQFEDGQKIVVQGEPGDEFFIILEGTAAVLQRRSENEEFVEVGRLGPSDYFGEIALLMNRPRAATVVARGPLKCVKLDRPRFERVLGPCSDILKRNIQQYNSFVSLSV

| EC50 (cGKII) [µM] | EC50 (cGKI) [µM] | SMILES | 4-AH-cCMP agarose affinity chromatography competed by free cCMP; mass spectromet (cAKRIα) |
| --- | --- | --- | --- |
| 110 ± 8 | – | Nc1ccn([C@@H]2O[C@@H]3COP(=O)(O)O[C@H]3[C@H]2O)c(=O)n1 [cCMP] | Specific binding of cCMP to cAKRIα/β was also detected. |
| – | 2 ± 0.5 | Nc1nc2c(ncn2[C@@H]2O[C@@H]3COP(=O)(O)O[C@H]3[C@H]2O)c(=O)[nH]1 [cGMP] | – |
